Consider ten compounds from ChEMBL document CHEMBL1201862, “PubChem BioAssay data set” (2004).

The structures appear in SMILES notation. Active and inactive are the calls of the source.

For assay [1], the target named is Diphosphomevalonate decarboxylase (Streptococcus pneumoniae serotype 2 (strain D39 / NCTC 7466), UniProt Q9FD53). The experiment in a line: S. pneumoniae DPM-DC inhibition retest, confirmation, biochemical, cuvette format, coupled NADH fluorescence (AID 1028). The class given is functional.
Assay [2] in a line: NIH-3T3 fibroblast cytotoxicity, dose response, cytotoxicity control, cell-based, fluorescence, Alamar Blue, secondary assay (AID 2327).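 Further: NIH-3T3 mouse fibroblasts cultured with fluconazole at 8 µg/mL.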 It counts as functional.
A short description of assay [3]: C. albicans growth with fluconazole, confirmation, fluorescence, retest (AID 2467). The class given is functional, cell-based.
Assay [4] deals with Ephrin type-A receptor 4 (Mus musculus, UniProt Q03137). The experiment in a line: inhibitors of EphA4 binding to KYL peptide, primary screen, biochemical, colorimetric, mouse EphA4 (AID 689). It counts as functional.
Assay [5] deals with T1, Cytochrome P450 1A2 (Homo sapiens, UniProt P05177).
T1 sequence (P05177 whole entry): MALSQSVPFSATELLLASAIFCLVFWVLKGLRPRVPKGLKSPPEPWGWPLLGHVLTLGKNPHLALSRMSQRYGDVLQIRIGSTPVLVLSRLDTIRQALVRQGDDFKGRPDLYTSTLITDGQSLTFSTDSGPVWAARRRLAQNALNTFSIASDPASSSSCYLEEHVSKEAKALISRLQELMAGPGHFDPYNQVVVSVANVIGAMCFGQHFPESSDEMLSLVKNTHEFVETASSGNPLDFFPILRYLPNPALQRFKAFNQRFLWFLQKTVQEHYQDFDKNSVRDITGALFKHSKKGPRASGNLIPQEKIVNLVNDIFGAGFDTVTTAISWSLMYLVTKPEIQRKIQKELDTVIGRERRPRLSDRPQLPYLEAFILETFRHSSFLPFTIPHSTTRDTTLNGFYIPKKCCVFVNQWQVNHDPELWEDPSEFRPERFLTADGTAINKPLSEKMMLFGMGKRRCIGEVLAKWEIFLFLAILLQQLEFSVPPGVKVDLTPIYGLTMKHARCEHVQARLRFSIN

The target of assay [6] is Cytochrome P450 2C9 (Homo sapiens, UniProt P11712).
Chain of Cytochrome P450 2C9 (P11712 whole entry): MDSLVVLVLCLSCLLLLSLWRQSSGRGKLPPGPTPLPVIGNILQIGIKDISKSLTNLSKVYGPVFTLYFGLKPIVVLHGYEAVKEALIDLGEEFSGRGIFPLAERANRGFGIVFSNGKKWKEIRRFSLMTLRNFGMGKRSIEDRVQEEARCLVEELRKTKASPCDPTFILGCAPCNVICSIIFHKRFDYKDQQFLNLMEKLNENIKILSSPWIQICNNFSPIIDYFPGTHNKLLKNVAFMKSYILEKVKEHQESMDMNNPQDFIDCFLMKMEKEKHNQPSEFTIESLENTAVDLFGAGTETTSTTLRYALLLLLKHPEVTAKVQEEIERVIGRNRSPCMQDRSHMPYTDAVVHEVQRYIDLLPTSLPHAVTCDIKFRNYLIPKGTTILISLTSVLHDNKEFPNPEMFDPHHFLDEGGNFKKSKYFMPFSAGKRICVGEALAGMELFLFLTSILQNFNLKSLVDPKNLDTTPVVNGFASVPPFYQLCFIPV
Assay [7] deals with Peroxisome proliferator-activated receptor gamma/Nuclear receptor corepressor 2 (Homo sapiens, UniProt P37231+Q9Y618). Nature of the assay: Counterscreen for NR2E3 inverse agonists: TR-FRET-based biochemical high throughput dose response assay to identify inverse agonists of the interaction between peroxisome proliferator-activated receptor gamma (PPARg) and nuclear receptor co-repressor 2 (NCOR2). The class given is functional.
Chain of Peroxisome proliferator-activated receptor gamma/Nuclear receptor corepressor 2 (P37231 whole entry): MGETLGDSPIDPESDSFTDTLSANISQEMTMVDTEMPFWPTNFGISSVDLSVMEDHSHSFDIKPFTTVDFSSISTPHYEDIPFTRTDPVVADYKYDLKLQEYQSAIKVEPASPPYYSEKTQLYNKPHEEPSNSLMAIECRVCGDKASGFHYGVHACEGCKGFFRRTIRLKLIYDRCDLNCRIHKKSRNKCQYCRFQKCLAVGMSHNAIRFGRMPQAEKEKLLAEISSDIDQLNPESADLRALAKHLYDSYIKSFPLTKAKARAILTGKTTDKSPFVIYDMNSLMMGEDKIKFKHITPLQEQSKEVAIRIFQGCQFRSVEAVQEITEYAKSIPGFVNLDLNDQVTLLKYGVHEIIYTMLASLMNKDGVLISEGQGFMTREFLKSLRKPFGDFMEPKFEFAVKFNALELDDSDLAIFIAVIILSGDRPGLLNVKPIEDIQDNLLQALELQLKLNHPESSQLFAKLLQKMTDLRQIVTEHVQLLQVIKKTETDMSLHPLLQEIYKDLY
Chain of Peroxisome proliferator-activated receptor gamma/Nuclear receptor corepressor 2 (Q9Y618 whole entry): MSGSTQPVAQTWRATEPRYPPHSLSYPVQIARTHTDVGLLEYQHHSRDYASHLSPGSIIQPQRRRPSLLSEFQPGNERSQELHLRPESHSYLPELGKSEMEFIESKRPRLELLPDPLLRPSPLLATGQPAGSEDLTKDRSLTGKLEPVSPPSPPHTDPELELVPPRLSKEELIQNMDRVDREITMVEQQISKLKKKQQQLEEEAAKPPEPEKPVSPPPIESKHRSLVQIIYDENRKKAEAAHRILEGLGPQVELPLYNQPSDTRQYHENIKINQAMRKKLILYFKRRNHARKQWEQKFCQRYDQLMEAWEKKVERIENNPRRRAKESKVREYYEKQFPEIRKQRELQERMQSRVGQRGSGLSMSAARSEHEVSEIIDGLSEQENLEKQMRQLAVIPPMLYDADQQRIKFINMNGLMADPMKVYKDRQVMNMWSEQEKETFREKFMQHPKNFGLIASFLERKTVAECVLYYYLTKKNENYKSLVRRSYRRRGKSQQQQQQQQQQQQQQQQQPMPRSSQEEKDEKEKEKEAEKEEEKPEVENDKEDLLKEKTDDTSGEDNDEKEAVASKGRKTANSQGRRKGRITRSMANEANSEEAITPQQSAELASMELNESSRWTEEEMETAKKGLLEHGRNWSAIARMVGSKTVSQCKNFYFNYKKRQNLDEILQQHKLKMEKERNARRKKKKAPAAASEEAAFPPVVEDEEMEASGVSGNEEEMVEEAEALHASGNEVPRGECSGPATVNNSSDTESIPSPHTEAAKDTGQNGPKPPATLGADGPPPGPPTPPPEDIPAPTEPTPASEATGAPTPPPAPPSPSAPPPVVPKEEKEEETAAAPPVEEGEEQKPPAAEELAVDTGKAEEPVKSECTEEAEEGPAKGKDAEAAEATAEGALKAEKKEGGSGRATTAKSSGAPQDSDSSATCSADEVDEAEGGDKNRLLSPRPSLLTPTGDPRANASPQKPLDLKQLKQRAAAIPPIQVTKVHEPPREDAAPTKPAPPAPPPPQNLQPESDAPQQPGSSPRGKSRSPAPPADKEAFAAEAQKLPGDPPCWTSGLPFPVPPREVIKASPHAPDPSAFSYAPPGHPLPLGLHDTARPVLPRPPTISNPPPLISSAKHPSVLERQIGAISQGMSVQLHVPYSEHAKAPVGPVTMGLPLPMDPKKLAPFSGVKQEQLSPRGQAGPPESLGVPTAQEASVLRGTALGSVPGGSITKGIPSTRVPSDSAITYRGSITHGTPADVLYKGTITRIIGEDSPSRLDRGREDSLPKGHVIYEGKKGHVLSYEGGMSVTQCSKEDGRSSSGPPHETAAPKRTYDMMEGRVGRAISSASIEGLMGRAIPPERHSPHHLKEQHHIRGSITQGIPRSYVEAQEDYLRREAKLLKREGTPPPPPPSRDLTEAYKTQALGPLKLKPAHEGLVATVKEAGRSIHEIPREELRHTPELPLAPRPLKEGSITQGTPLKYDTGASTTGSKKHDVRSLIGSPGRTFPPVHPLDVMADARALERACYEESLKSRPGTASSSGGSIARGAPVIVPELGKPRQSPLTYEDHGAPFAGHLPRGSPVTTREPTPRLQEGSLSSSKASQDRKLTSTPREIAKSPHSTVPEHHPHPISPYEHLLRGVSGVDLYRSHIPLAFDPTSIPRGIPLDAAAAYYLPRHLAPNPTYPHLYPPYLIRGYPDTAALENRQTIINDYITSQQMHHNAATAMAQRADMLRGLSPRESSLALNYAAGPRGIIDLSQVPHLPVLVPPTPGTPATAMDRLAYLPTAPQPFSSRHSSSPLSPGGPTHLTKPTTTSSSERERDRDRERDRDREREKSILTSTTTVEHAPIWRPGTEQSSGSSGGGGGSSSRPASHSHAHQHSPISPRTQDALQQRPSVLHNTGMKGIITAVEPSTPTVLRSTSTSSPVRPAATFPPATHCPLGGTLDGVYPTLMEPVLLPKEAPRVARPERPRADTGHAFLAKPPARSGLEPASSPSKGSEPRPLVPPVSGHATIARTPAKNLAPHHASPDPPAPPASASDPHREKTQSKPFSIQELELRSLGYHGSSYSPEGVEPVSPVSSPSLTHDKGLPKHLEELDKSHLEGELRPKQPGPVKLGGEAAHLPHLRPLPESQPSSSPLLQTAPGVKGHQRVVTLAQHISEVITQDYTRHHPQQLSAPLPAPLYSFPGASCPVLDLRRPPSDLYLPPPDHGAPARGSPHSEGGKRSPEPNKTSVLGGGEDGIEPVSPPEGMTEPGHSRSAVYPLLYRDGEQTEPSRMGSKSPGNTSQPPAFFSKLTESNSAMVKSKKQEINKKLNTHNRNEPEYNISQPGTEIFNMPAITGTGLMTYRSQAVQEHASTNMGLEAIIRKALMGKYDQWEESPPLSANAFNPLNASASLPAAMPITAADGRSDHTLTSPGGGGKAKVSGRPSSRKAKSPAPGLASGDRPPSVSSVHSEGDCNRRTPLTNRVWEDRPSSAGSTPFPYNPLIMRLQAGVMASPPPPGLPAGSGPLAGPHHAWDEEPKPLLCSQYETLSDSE

Assay [8] addresses Photoreceptor-specific nuclear receptor (Homo sapiens, UniProt Q9Y5X4). Nature of the assay: NR2E3 inverse agonists, dose response, biochemical, TR-FRET (AID 463256). The class given is functional. For orientation: TR-FRET usually uses a lanthanide donor and a delayed reading to cut background.
Assay [9] addresses T2, Bcl-2-related protein A1 (Mus musculus, UniProt Q07440).
T2 sequence (Q07440 whole entry): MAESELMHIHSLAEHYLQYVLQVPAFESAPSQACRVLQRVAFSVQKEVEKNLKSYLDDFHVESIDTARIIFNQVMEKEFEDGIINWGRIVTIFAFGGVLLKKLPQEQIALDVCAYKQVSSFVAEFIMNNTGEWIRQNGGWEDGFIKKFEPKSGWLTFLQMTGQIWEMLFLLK
The experiment in a line: Bfl-1 inhibitors blocking BH3 peptide binding, confirmation, biochemical, TR-FRET, mouse Bfl-1 (AID 621).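 Further: TR-FRET binding of GST-Bfl-1 to FITC-labelled Bid peptide via terbium antibody.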

Assay [10] has as its target T2, Bcl-2-related protein A1. The experiment in a line: Bfl-1 binding inhibitors, SAR follow-up, biochemical, fluorescence polarization (AID 1070).
The target of assay [11] is T3, Protein skinhead-1 (Caenorhabditis elegans, UniProt P34707).
T3 sequence (P34707 whole entry): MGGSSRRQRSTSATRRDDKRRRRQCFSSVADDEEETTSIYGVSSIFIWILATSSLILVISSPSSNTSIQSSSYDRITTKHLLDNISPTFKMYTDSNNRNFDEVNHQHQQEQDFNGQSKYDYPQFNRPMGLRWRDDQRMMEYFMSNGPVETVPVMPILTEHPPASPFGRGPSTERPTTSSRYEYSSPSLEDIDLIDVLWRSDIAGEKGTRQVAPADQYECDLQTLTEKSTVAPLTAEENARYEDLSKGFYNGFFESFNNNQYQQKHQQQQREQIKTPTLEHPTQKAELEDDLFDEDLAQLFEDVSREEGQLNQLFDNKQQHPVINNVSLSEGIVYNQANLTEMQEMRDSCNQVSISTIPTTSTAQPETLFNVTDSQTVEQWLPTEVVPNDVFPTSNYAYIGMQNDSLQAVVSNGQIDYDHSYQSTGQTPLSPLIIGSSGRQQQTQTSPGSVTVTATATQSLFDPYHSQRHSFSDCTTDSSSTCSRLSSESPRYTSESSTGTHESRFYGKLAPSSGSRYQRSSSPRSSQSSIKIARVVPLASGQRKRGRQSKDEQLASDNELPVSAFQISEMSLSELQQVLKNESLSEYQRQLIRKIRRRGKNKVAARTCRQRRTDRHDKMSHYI
It counts as functional.

The target in assay [12] is T4, Oxysterols receptor LXR-beta (Homo sapiens, UniProt P55055).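 Further: agonist activity at LXR measured by a cell-based luminescence readout across a dose range, run as a counterscreen for daf-12 agonists; HEK293 cells with Gal4-LXR fusion and GAL4-driven luciferase reporter; potency for activation of Gal4-LXR reporter so compounds are agonists.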
T4 sequence (P55055 whole entry): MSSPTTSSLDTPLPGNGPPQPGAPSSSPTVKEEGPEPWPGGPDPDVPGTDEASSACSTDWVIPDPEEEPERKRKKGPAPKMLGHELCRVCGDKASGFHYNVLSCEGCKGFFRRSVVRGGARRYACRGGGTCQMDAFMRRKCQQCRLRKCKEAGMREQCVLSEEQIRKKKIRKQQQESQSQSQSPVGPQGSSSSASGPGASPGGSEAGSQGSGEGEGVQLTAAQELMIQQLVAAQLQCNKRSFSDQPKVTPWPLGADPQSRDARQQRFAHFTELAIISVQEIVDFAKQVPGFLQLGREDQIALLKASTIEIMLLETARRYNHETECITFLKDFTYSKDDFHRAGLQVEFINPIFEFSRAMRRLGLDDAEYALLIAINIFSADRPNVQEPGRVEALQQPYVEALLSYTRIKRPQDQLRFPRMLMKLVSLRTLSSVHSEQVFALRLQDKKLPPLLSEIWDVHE
The class given is functional, cell-based.

Assay [13] is described as follows: Luminescence-based dose response cell-based high throughput screening assay for cytotoxic compounds using the IEC-6 intestinal epithelial cell line. [Related pubchem assays: 1858 (Summary AID.), 1825 (Counterscreen.), 1907 (Confirmation screen.)]. The class given is functional. (In general: Counterscreens check selectivity or assay interference.)
Assay [14] is described as follows: THP-1 cell cytotoxicity, dose response, cytotoxicity control for non-replicating M. tuberculosis project (AID 489025). It counts as functional.
Assay [15] is described as follows: Luminescence Cell-Based Dose Retest to Confirm Inhibitors of Cancer Stem Cells. [Related pubchem assays (depositor defined):AID2717, AID2721]. The class given is functional. The note with it: Homo sapiens.
Assay [16] in a line: HepG2 cell cytotoxicity, dose response, cytotoxicity control for non-replicating M. tuberculosis project (AID 489018). The note with it: Mycobacterium tuberculosis. The class given is functional.
Assay [17] in a line: Vero E6 cell cytotoxicity, dose response, cytotoxicity control for non-replicating M. tuberculosis project, secondary assay (AID 492998). As to conditions: Vero C1008. It counts as functional, VeroE6.
Assay [18] can be described thus: cells. It counts as functional.
The target in assay [19] is Paired box protein Pax-8 (Homo sapiens, UniProt Q06710). The experiment in a line: inhibitors of PAX8-driven TPO luciferase reporter, dose response, RMG-I cells, cherry-pick (AID 687027).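 Further: luciferase reporter driven by Pax8 target thyroperoxidase promoter measured by SteadyGlo luminescence.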 The class given is functional, cell-based. Background: Reporter assays use an easily measured gene product as a stand-in for the process of interest.
A short description of assay [20]: Luminescent dose response cell-based high throughput screening assay for inhibitors of the Janus kinase 2 mutant JAK2V617F. [Related pubchem assays: 1446 (Primary screen.), 1521 (Confirmation assay.), 1486 (Counter screen.)]. It counts as functional.
For assay [21], the target named is Voltage-gated inwardly rectifying potassium channel KCNH2 (Homo sapiens, UniProt Q12809). Nature of the assay: hERG protection from proarrhythmic block, potency, dose response, cell-based, thallium flux (AID 2121). It counts as ADME.
Chain of Voltage-gated inwardly rectifying potassium channel KCNH2 (Q12809 whole entry): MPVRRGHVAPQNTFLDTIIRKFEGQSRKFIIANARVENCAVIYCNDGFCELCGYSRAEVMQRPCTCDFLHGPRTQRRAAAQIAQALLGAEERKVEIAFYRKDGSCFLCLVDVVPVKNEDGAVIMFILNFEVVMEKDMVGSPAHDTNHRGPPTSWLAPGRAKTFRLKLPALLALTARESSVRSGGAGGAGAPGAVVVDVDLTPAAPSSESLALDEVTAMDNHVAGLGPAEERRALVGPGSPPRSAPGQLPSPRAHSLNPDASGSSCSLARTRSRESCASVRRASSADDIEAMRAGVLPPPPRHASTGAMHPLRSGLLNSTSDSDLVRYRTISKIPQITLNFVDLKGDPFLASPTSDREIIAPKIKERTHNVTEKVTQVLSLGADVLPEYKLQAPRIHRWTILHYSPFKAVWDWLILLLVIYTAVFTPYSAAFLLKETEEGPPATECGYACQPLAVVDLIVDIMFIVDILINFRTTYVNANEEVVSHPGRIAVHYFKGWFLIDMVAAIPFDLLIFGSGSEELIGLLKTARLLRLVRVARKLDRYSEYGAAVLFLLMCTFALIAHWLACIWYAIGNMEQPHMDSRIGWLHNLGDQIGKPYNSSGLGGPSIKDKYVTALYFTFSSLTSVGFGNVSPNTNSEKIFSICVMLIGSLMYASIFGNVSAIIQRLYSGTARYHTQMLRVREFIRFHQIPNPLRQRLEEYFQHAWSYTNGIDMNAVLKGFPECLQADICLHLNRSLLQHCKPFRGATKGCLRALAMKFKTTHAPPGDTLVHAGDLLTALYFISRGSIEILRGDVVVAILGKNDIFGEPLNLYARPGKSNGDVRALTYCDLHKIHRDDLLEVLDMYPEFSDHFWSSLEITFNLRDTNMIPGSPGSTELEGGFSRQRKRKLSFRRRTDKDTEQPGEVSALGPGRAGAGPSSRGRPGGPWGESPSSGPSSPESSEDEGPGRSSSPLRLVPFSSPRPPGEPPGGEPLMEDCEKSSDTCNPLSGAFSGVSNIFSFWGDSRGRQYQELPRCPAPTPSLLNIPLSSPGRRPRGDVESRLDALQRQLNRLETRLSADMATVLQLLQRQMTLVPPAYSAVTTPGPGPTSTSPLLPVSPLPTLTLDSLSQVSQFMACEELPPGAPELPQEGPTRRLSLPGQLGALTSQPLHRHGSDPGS
Assay [22] can be described thus: HEp-2 cell cytotoxicity, dose response, cytotoxicity control for RSV inhibitor project, HTS (AID 2410). The class given is functional. As to conditions: human respiratory syncytial virus.
Assay [23] deals with Genome polyprotein (Hepatitis C virus, UniProt Q2Q167). Nature of the assay: HCV core protein dimerization inhibitors, dose response, biochemical, TR-FRET (AID 2159).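 Further: blocks dimerization of HCV core protein measured by TR-FRET between tagged core106 pairs.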 On the set-up: species or system Hepacivirus hominis.
Chain of Genome polyprotein (Q2Q167 whole entry): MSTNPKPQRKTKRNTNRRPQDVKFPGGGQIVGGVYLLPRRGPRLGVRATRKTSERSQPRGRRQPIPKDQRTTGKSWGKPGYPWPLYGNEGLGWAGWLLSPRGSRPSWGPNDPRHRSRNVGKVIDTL
For assay [24], the target named is Estrogen receptor (Homo sapiens, UniProt P03372).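 Further: potency for inhibiting coactivator peptide recruitment to the receptor.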
The target in assay [25] is Luciferin 4-monooxygenase (Photinus pyralis, UniProt P08659). The experiment in a line: firefly luciferase enzyme inhibitors, dose response, biochemical, luminescence (AID 1891).
A short description of assay [26]: Luminescence Cell-Based Dose Confirmation HTS to Identify Inhibitors of Platelet Dense Granule Release. [Related pubchem assays: 1663 (Primary HTS), 1678 (Summary of Project)]. It counts as functional.
Assay [27] in a line: Fluorescence Cell-Based Dose Response to Identify Inhibitors of Thrombin Receptor-Activating Peptide SFLLRN-Mediated P-Selectin Induction on Platelets. [Related pubchem assays: 1663 (Primary HTS), 1889 (retest at dose ), 1891 (counterscreen), 1678 (Project Summary)]. It counts as functional.
For assay [28], the target named is 14-3-3 protein gamma (Homo sapiens, UniProt P61981). The experiment in a line: modulators of 14-3-3 gamma client binding – dose response (AID 711). The class given is functional.
Chain of 14-3-3 protein gamma (P61981 whole entry): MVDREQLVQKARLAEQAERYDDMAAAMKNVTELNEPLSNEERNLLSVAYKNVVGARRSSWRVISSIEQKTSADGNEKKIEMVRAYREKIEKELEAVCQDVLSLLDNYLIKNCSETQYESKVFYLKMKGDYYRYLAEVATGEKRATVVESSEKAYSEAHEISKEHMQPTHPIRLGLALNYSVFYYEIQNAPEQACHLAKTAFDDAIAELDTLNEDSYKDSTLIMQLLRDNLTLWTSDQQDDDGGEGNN

As to `CCN(CC)C(=O)c1cccc(-n2sc3ccccc3c2=O)c1`, in [1], the IC50 – broadly, the concentration at which inhibition is half-maximal – was 16.7 µM (active).

With `O=C(O)c1ccccc1C(=O)NNc1ccc(F)cc1`, the concentration giving a half-maximal response (EC50) (usually the midpoint of the concentration-response curve) in assay [2] is 25.5 µM (active); in assay [3], > 38 µM (not active). Moreover, in assay [4], the IC50 is > 100 µM (not active). Moreover, the AC50 (commonly the concentration at which the activity in the assay is half-maximal) in assay [5] is 20 µM (inconclusive); in [6], 25.1 nM (inconclusive).

Take `O=C(Nc1nccs1)c1cc(-c2ccccn2)nc2c(Cl)cccc12`: the IC50 in [7] is 2.89 µM (active); in assay [8], 3.87 µM (active).

In the case of `Fc1ccc(-n2nnc(-c3cccnc3Cl)n2)cc1`, the IC50 in assay [9] is > 100 µM (not active); in [10], > 100 µM (not active); in [11], 21 µM (active). Also, in assay [12], the EC50 is > 67.5 µM (inactive).

On to `O=C(Nc1ccc(N2CCN(C(=O)c3cccs3)CC2)cc1)c1ccc([N+](=O)[O-])o1`, for which the figures for the IC50 in assay [13] and in assay [18] were 1.77 µM (active) and < 100 nM (active), respectively. The half-maximal cytotoxic concentration (CC50) (commonly the concentration giving 50% cytotoxicity) in [14] was 1.18 µM (active); in [16], > 20 µM (active); in assay [17] it was 1.46 µM (active). Moreover, the AC50 in assay [15] is 1.5 µM (active); in assay [19], 1.96 µM (active).

As to `O=S(=O)(c1cnc(Cl)c(Cl)c1)N1CCc2ccccc21`, the IC50 in assay [20] was 3.96 µM (active).

Take `C=CCN(CC=C)C(=S)NC(=O)/C=C/c1ccc(OC)cc1`: the EC50 in assay [21] was 3.01 µM (active).

For `CCn1c(SCC(=O)Nc2ccc3c(c2)c2ccccc2n3CC)nnc1-c1ccco1`, the CC50 in assay [22] is 48.9 µM (active). The figures for the IC50 in assay [23] and in assay [24] were > 49.8 µM (not active) and > 50 µM (not active), respectively.

Take `COc1ccc(C(=O)Nc2ccc(N3CCOCC3)cc2)cc1OC`: the EC50 was 24.2 µM (active) in assay [25], 1.95 µM (active) in assay [26] and > 100 µM (not active) in [27].

As for `CNC(=O)C(Sc1ccccc1)c1ccccc1` (stereo not drawn), the IC50 in assay [28] is > 50 µM (not active).
